How the values were obtained:
[1] = tested on: transfected Neuro2a cells; assay: 125I-Aβ degradation and tracer uptake in culture media during treatments; format: cell-based, mouse; conditions: 1 mM 1,10-phenanthroline
Description: Leptin was almost as efficient as methyl-β-cyclodextrin in lowering Aβ (FIG. 4a, 4b).

SY5Y cells = assay: 125I-Aβ uptake by SY5Y cells (apoE-dependent); format: cell-based, human
Description: Preparation of ApoE and binding with ^125I-Aβ. ApoE was isolated from the conditioned media of human embryonic kidney (HEK-293) cells stably-transfected with human apoE (having the ε3 allele or the ε4 allele) cDNA (Tezapsidis et al., FASEB J. 17:1322-1324 (2003)). These preparations, while usually poor in lipid, are fully functional for uptake experiments. ApoE then was pre-incubated with ^125I-Aβ overnight at 37° C. (Aβ/ApoE: 1/50 w/w) as described (Tezapsidis et al., FASEB J. 17:1322-1324 (2003)).
Aβ-uptake by SY5Y cells. Human ^125I-Aβ (iodinated at Tyr-10, Amersham Biosciences, IM 294) uptake was measured following addition of 0.1 nM ^125I-Aβ40 (SEQ ID NO: 4) to confluent SY5Y cells (60,000 cpm/ml) in the presence or absence of 100 ng/ml or 400 ng/ml leptin also included in a 24 h pre-incubation period. ^125I-Aβ was either added alone or was previously incubated with apoε3. In controls, Receptor Associated Protein (“RAP”, 1 μM) was added together with Aβ or the Aβ/apoE complex. RAP is an antagonist of a number of lipoprotein receptors (LaDu et al., Neurochem Int. 39:427-34 (2001)). After 24 h, the media were collected and subjected to scintillation counting for γ-Iradiation (Kang et al., 2000. J Clin Invest. 106:1159-66 (2000)). The amount of radioactivity was measured in both the trichloroacetic acid (10%) TCA pellets (representing intact Aβ) and the corresponding supernatants (representing degraded Aβ). 96.5±8.2% (mean±s.e.m., n=4 experiments, triplicate determinations) of the radioactivity found in the medium could be recovered in the TCA pellet and represented intact or oligomeric Aβ (not shown), when Aβ was pre-incubated with apoE.
The amount of TCA-precipitable radioactivity in the soluble fraction of cell lysates was compared to that in the total lysates, the ratio of which was typically about 0.8 to about 0.9 (not shown), to further verify that radioactivity was reduced in the media as a reflection of Aβ uptake by the cells, rather than due to non-specific binding to the extracellular surface of membranes or oligomerization/aggregation of Aβ.
In panel (a), Aβ uptake was measured in SY5Y cells following their treatment at 0 ng/ml, 100 ng/ml or 400 ng/ml leptin. Uptake also was measured in cells previously transfected with antisense DNA for PS1 as described (Tezapsidis et al., FASEB J. 17:1322-1324(2003)) (black). Uptake is expressed as the percentage of that observed with Aβ pre-incubated with apoε3 (medium gray) in the absence of leptin (first set of columns). […] Leptin induced a dose-dependent increase in Aβ uptake with a preference for apoε3 (medium gray) over apoε4 (light gray). In panel (b), SY5Y cells were pre-treated with […] cholesterol (+Chol) or normal medium (−Chol). Then Aβ uptake was measured following its preincubation with apoε3 (ε3) or apoε4 (ε4) in the absence (black) or the presence (gray) of about 400 ng/ml leptin. Cells were more resistant to taking-up Aβ when loaded with cholesterol. […] In panel (c), SY5Y cells were transiently transfected with SREBP-1 or SREBP-2 cDNA or an empty vector (Control). Then Aβ was measured in the medium by ELISAs (Figueiredo-Pereira et al., J Neurochem. 72:1417-22 (1999)) following treatment with (+) or without (−) leptin. […] In panel (d), Aβ uptake was measured in SY5Y cells prepared as in panel (c). Uptake was performed using Aβ/apoε3 complexes.

neurons = assay: Leptin immunostaining of neurons treated with cholesterol; format: cell-based, rat; conditions: neurons, 0, 5 or 10 μM cholesterol, 5 h
Description: (§1) Leptin was detected using a rabbit polyclonal antibody raised against mouse leptin, corss-reacting with human leptin (obtained from Dr. A. F. Parlow, Harbor-UCLA, CA). Immunofluorescent confocal microscopy was performed on 2% paraformaldehyde-fixed primary neural cells. Filipin staining was performed as described (Feng et al., Nat Cell Biol. 5:781-92 (2003)).
(§2) Neural cultures from ε15 rat cerebral cortex were processed for enrichment of neurons (a-d) or astrocytes (e-h) as described (Takeshima et al., J. Neurosci. Methods 67: 27-41 (1996)). After about 7 days to about 10 days in culture, cultures were treated for about 5 h with about 10 μg/ml cholesterol (b, f) or about 400 ng/ml leptin plus cholesterol (c, g) or leptin alone (d, h). Controls (a, e) were treated with culture media alone. Filipin staining was performed as described (Feng et al., Nat. Cell Biol. 5: 781-92 (2003)). Neurons (i-k) and astrocytes (l-n) prepared as above were treated with 0 μM (i, l), 5 μM (j, m) or 10 μM cholesterol (k, n) for 5 h. Immunostaining was performed for leptin (A.F.Parlow, Harbor-UCLA, CA).

astrocytes = assay: Leptin immunostaining of astrocytes treated with cholesterol; format: cell-based, rat; conditions: astrocytes, 0, 5 or 10 μM cholesterol, 5 h
Description: as §1, §2

β-secretase = assay: C99/C83 accumulation in SY5Y cells in presence of γ-secretase inhibitors (Western blot); format: cell-based, human; conditions: 5 h, with L-685,458 (100 nM) or Z-VL-CHO (100 μM); 10 μM cholesterol or 400 ng/ml leptin alone
[2] = tested on: Neuro2a cells stably transfected with hyg-sa134 (SEAP-APP); assay: Aβ production by Neuro2a cells stably transfected with hyg-sa134 (total Aβ in media, sandwich ELISA); format: cell-based, mouse; conditions: 5 h; about 400 ng/ml leptin alone or 10 μM water-soluble cholesterol alone; FIG. 4b

Row | Compound | tracer's uptake by the cells [1] | Aβ degradation during the uptake (SY5Y cells; absence of apoE) | levels of leptin-like immunoreactivity (neurons) | levels of leptin-like immunoreactivity (astrocytes) | C99 level (β-secretase) | levels of Aβ detected in the media (percentage of corresponding controls) [2] [%] | apoε3-Aβ taken up compared to controls (SY5Y cells; SY5Y cells preloaded with cholesterol/CDX, without leptin, FIG. 5b) [%]
1 | c1cnc2c(c1)ccc1cccnc12 [1,10-phenanthroline] | did not cause any significant difference | abolished Aβ degradation | – | – | – | – | –
2 | CC(C)CCC[C@@H](C)[C@H]1CC[C@H]2[C@@H]3CC=C4C[C@@H](O)CC[C@]4(C)[C@H]3CC[C@]12C [cholesterol] | – | – | enhanced | enhanced | increase in C99 | 205±6 | 22±6

Source: patent US8227408B2, “Leptin as an anti-amyloidogenic biologic and methods for delaying the onset and reducing Alzheimer's disease-like pathology” (Neurotez, Inc., priority 2005, dated 2012)
